≈ marks a conversion by molar mass, not a printed value. Like-named read-outs stand apart in the source and are kept apart here.
Key:
Candida albicans R303 = assay: mouse model of disseminated candidiasis, fungal burden in kidneys; assay type: in vivo; settings: kidneys at 24 h; for reductions in fungal burden vs infected control (statistical significance): neutropenic CD-1 mice, 0.5, 1.5 or 4.5 mg/kg 2 h after inoculation; for fungal burden relative to limit of detection: neutropenic CD-1 mice, 0.5, 1.5 or 4.5 mg/kg
Method: Candida albicans R303 was grown on Sabouraud dextrose agar (SDA) plates for 24 h at 35°C. Colonies were transferred to phosphate-buffered saline (PBS) and diluted to 3.8 × 10^5 CFU/ml. Female CD-1 mice (Charles River Laboratories, Portage, MI) were rendered neutropenic via injection with cyclophosphamide (150 mg/kg) 5 days and 2 days prior to inoculation. Each animal was infected by injecting 0.1 ml of inoculum into the tail vein. In the treatment groups, animals received 0.5, 1.5, or 4.5 mg/kg of test article 2 h after inoculation. Two groups of untreated, infected controls were used to evaluate fungal burden: at 2 h when test articles were administered in the treatment groups and at 24 h when the treatment groups were sacrificed. Kidneys were harvested at 2 h in one untreated control group and at 24 h in all other groups. The kidneys were homogenized in 2 ml of sterile phosphate-buffered saline, and 0.1-ml aliquots were spread on SDA plates and incubated at 35°C overnight. Fungal burden was determined based on the log10 C. albicans CFU counts from paired kidneys. Data were analyzed using a one-way analysis of variance (ANOVA) and the Dunnett multiple comparisons test comparing the test articles to the infected control group (GraphPad InStat version 3.1; GraphPad Software, San Diego, CA).

[1] = single-dose pharmacokinetics in beagle dogs; settings: male, beagle, dog, in vivo, iv, 1.4 mg/kg
Method: Four male, nonnaive beagle dogs received a single i.v. infusion (1.4 mg/kg) of test article over 10 min via a catheter placed in the cephalic vein. Blood draws (1.0 ml) were taken at 0.083, 0.33, 0.75, 1.5, 4.5, 12, 24, and 48 h. An additional blood draw at 72 h was obtained for CD101. Blood draws were taken from the jugular vein and were collected into K3 EDTA tubes. Following blood collection, the samples were immediately inverted several times and were held on wet ice pending centrifugation. The samples were centrifuged within ∼30 min of collection under refrigeration (∼5°C for ∼10 min at ∼2,000 g) to obtain plasma. The plasma samples were frozen immediately on dry ice after separation and were stored at approximately −70°C until analysis. Levels of test article in the plasma samples were measured by quantitative liquid chromatography-tandem mass spectrometry (LC-MS/MS) analysis compared to a calibration curve and an internal standard. Pharmacokinetic parameters were calculated from the plasma concentration-time data using standard noncompartmental methods and utilizing WinNonlin analysis software.

Aspergillus spp. = assay: CLSI broth microdilution (M38-A2) MEC, whole panel; assay type: cell-based; settings: 48 h, summary of Table 3
Method: (§1) All yeast and mold isolates were obtained from the American Type Culture Collection (ATCC). Isolates were plated on an agar medium to verify purity, and single colonies were picked. Aspergillus isolates were resubcultured on potato dextrose slants and incubated for 7 days at 35°C. Candida isolates were streaked on SDA plates and incubated for 24 h at 35°C. RPMI 1640 medium (HyClone Laboratories, Logan, UT) and the inoculum for each organism were prepared according to Clinical and Laboratory Standards Institute (CLSI) guidelines ([27][–][29]). Stock solutions for all test articles were prepared in 100% dimethyl sulfoxide (DMSO). Susceptibility testing was performed using CLSI broth microdilution methods for Candida (M27-A3) and Aspergillus (M38-A2). Amphotericin B was tested at a range of 0.06 to 64 μg/ml; all other antifungal agents were tested at 0.015 to 16 μg/ml. Plates were incubated at 35°C and were read from the bottom using a plate viewer after 24 and 48 h for Candida and after 48 h for Aspergillus. MIC values are reported as the lowest drug concentration to yield a 50% reduction in the growth of Candida species tested compared to the control well. Minimum effective concentration (MEC) values are reported as the lowest drug concentration to yield the stunted hyphal growth of Aspergillus species tested compared to that of the control well.

[2] = tested on: Aspergillus clavatus ATCC 10058; assay: CLSI broth microdilution (M38-A2) MEC/MIC; assay type: cell-based; settings: read at 68 h
Method: as §1, with “Plates were incubated at 35°C and were read from the bottom using a plate viewer after 24 and 48 h for Candida and after 48 h for Aspergillus.” left out

[3] = tested on: Aspergillus niger ATCC 16888; assay: CLSI broth microdilution (M38-A2) MEC/MIC; assay type: cell-based
Method: as §1

[4] = tested on: Aspergillus fumigatus ATCC MYA-3626; assay: CLSI broth microdilution (M38-A2) MEC/MIC; assay type: cell-based; settings: 48 h
Method: as §1

[5] = tested on: Aspergillus flavus ATCC 22546; assay: CLSI broth microdilution (M38-A2) MEC/MIC; assay type: cell-based
Method: as §1

[6] = tested on: Aspergillus fumigatus ATCC 204305; assay: CLSI broth microdilution (M38-A2) MEC/MIC; assay type: cell-based
Method: as §1

[7] = tested on: Aspergillus ochraceus ATCC 96919; assay: CLSI broth microdilution (M38-A2) MEC/MIC; assay type: cell-based
Method: as §1

[8] = tested on: Aspergillus candidus ATCC 13686; assay: CLSI broth microdilution (M38-A2) MEC/MIC; assay type: cell-based
Method: as §1

[9] = tested on: Candida lusitaniae ATCC 34134; assay: CLSI broth microdilution (M27-A3) MIC; assay type: cell-based; settings: Clavispora lusitaniae, ATCC34134, 50% reduction in growth, read-out: MIC
Method: as §1

[10] = tested on: Candida parapsilosis ATCC 22019; assay: CLSI broth microdilution (M27-A3) MIC; assay type: cell-based; settings: Lodderomyces parapsilosis, ATCC22019, 50% reduction in growth
Method: as §1

[11] = tested on: Candida tropicalis ATCC 90874; assay: CLSI broth microdilution (M27-A3) MIC; assay type: cell-based; settings: 50% reduction in growth
Method: as §1

[12] = tested on: Candida glabrata ATCC 90030; assay: CLSI broth microdilution (M27-A3) MIC; assay type: cell-based; settings: Nakaseomyces glabratus
Method: as §1

[13] = tested on: Candida guilliermondii ATCC 34134; assay: CLSI broth microdilution (M27-A3) MIC; assay type: cell-based; settings: Meyerozyma guilliermondii, ATCC34134, 50% reduction in growth
Method: as §1

[14] = tested on: Candida krusei ATCC 14243; assay: CLSI broth microdilution (M27-A3) MIC; assay type: cell-based; settings: Pichia kudriavzevii, ATCC14243, 50% reduction in growth
Method: as §1

[15] = tested on: Candida albicans ATCC 90028; assay: CLSI broth microdilution (M27-A3) MIC; assay type: cell-based; settings: 50% reduction in growth
Method: as §1

Compound | Vd [1] | half-life [1] | reductions in fungal burden vs infected control (statistical significance) (Candida albicans R303) | fungal burden relative to limit of detection (Candida albicans R303) | MIC ([9]; 24 h) | MIC ([9]; 48 h) | MIC ([10]; 24 h) | MIC ([10]; 48 h) | MIC ([11]; ATCC90874, 24 h) | MIC ([11]; ATCC90874, 48 h) | MIC ([13]; 24 h) | MIC ([13]; 48 h) | MIC ([14]; 24 h) | MIC ([14]; 48 h) | MIC ([15]; ATCC90028, 24 h) | MIC ([15]; ATCC90028, 48 h) | further results
CCCCCOc1ccc(-c2ccc(-c3ccc(C(=O)N[C@H]4C[C@@H](O)[C@@H](NCCNCCO)NC(=O)[C@@H]5[C@@H](O)[C@@H](C)CN5C(=O)[C@H]([C@@H](C)O)NC(=O)[C@H]([C@H](O)[C@@H](O)c5ccc(O)cc5)NC(=O)[C@@H]5C[C@@H](O)CN5C(=O)[C@H]([C@@H](C)O)NC4=O)cc3)cc2)cc1 [Compound 5] | 0.687 L/kg | 21 h | statistically significant (P < 0.01) reductions in fungal burden at all doses | below the limit of detection for at least one of the doses |  |  |  |  |  |  |  |  |  |  |  |  | 
CCCCCOc1ccc(-c2ccc(-c3ccc(C(=O)N[C@H]4C[C@@H](O)[C@@H](OCCOCCN)NC(=O)[C@@H]5[C@@H](O)[C@@H](C)CN5C(=O)[C@H]([C@@H](C)O)NC(=O)[C@H]([C@H](O)[C@@H](O)c5ccc(O)cc5)NC(=O)[C@@H]5C[C@@H](O)CN5C(=O)[C@H]([C@@H](C)O)NC4=O)cc3)cc2)cc1 [Compound 3] | 0.627 L/kg | 33.7 h |  | below the limit of detection for at least one of the doses |  |  |  |  |  |  |  |  |  |  |  |  | 
CC[C@H](C)C[C@H](C)CCCCCCCCC(=O)N[C@H]1C[C@@H](O)[C@@H](NCCN)NC(=O)[C@@H]2[C@@H](O)CCN2C(=O)[C@H]([C@H](O)CCN)NC(=O)[C@H]([C@H](O)[C@@H](O)c2ccc(O)cc2)NC(=O)[C@@H]2C[C@@H](O)CN2C(=O)[C@H]([C@@H](C)O)NC1=O [Caspofungin, caspofungin] |  |  |  |  | 0.25 µg/mL (≈ 0.229 µM) | 0.25 µg/mL (≈ 0.229 µM) | 0.25 µg/mL (≈ 0.229 µM) | 0.5 µg/mL (≈ 0.457 µM) | 0.06 µg/mL (≈ 0.0549 µM) | 0.06 µg/mL (≈ 0.0549 µM) | 0.25 µg/mL (≈ 0.229 µM) | > 16 µg/mL | 0.25 µg/mL (≈ 0.229 µM) | 0.5 µg/mL (≈ 0.457 µM) | 0.06 µg/mL (≈ 0.0549 µM) | 0.06 µg/mL (≈ 0.0549 µM) | MEC values against all Aspergillus species tested (Aspergillus spp.): ≤ 0.125 µg/mL; MEC ([2]; stunted hyphal growth): 0.125 µg/mL; MEC ([3]; 48 h, stunted hyphal growth): 0.06 µg/mL; MEC ([4]; stunted hyphal growth): 0.125 µg/mL; MEC ([5]; 48 h, stunted hyphal growth): 0.06 µg/mL; MEC ([6]; 48 h, stunted hyphal growth): 0.125 µg/mL; MEC ([7]; 48 h, stunted hyphal growth): 0.06 µg/mL; MEC ([8]; 48 h, stunted hyphal growth): ≤0.015 µg/mL; MIC ([12]; ATCC90030, 24 h): 0.125 µg/mL (≈ 0.114 µM); MIC ([12]; ATCC90030, 48 h): 0.125 µg/mL (≈ 0.114 µM)
C[C@@H]1[C@H](O)[C@@H](C)/C=C/C=C/C=C/C=C/C=C/C=C/C=C/[C@H](O[C@@H]2O[C@H](C)[C@@H](O)[C@H](N)[C@@H]2O)C[C@@H]2O[C@](O)(C[C@@H](O)C[C@@H](O)[C@H](O)CC[C@@H](O)C[C@@H](O)CC(=O)O[C@H]1C)C[C@H](O)[C@H]2C(=O)O [Amphotericin B, amphotericin B] |  |  |  |  | ≤ 0.06 µg/mL | ≤ 0.06 µg/mL | 0.25 µg/mL (≈ 0.271 µM) | 0.5 µg/mL (≈ 0.541 µM) | 0.25 µg/mL (≈ 0.271 µM) | 0.25 µg/mL (≈ 0.271 µM) | ≤ 0.06 µg/mL | ≤ 0.06 µg/mL | 0.25 µg/mL (≈ 0.271 µM) | 0.5 µg/mL (≈ 0.541 µM) | ≤ 0.06 µg/mL | 0.125 µg/mL (≈ 0.135 µM) | MIC ([2]; Aspergillus clavatus, ATCC10058): ≤ 0.06 µg/mL; MIC ([3]; Aspergillus niger, ATCC16888, 48 h): 0.125 µg/mL (≈ 0.135 µM); MIC ([4]; Aspergillus fumigatus): 1 µg/mL (≈ 1.08 µM); MIC ([5]; Aspergillus flavus, ATCC22546, 48 h): 1 µg/mL (≈ 1.08 µM); MIC ([6]; Aspergillus fumigatus, ATCC204305, 48 h): 1 µg/mL (≈ 1.08 µM); MIC ([7]; Aspergillus ochraceus, ATCC96919, 48 h): 2 µg/mL (≈ 2.16 µM); MIC ([8]; Aspergillus candidus, ATCC13686, 48 h): ≤ 0.06 µg/mL; MIC ([12]; ATCC90030, 24 h, 50% reduction in growth, read-out: MIC): 0.06 µg/mL (≈ 0.0649 µM); MIC ([12]; ATCC90030, 48 h, 50% reduction in growth, read-out: MIC): 0.25 µg/mL (≈ 0.271 µM)

The next lines start with results.

Vd [1] | half-life [1] | Compound | reductions in fungal burden vs infected control (statistical significance) (Candida albicans R303) | fungal burden relative to limit of detection (Candida albicans R303) | MIC ([9]; 24 h) | MIC ([9]; 48 h) | MIC ([10]; 24 h) | MIC ([10]; 48 h) | MIC ([11]; ATCC90874, 24 h) | MIC ([11]; ATCC90874, 48 h) | MIC ([13]; 24 h) | MIC ([13]; 48 h) | MIC ([14]; 24 h) | MIC ([14]; 48 h) | MIC ([15]; ATCC90028, 24 h) | MIC ([15]; ATCC90028, 48 h) | further results
0.331 L/kg | 18.9 h | CCCCCOc1ccc(-c2ccc(-c3ccc(C(=O)N[C@H]4C[C@@H](O)[C@@H](OCCOCCOC)NC(=O)[C@@H]5[C@@H](O)[C@@H](C)CN5C(=O)[C@H]([C@@H](C)O)NC(=O)[C@H]([C@H](O)[C@@H](O)c5ccc(O)cc5)NC(=O)[C@@H]5C[C@@H](O)CN5C(=O)[C@H]([C@@H](C)O)NC4=O)cc3)cc2)cc1 [Compound 2] |  |  |  |  |  |  |  |  |  |  |  |  |  |  | 
0.361 L/kg | 28.9 h | CCCCCOc1ccc(-c2ccc(-c3ccc(C(=O)N[C@H]4C[C@@H](O)[C@@H](OCCOCCO)NC(=O)[C@@H]5[C@@H](O)[C@@H](C)CN5C(=O)[C@H]([C@@H](C)O)NC(=O)[C@H]([C@H](O)[C@@H](O)c5ccc(O)cc5)NC(=O)[C@@H]5C[C@@H](O)CN5C(=O)[C@H]([C@@H](C)O)NC4=O)cc3)cc2)cc1 [Compound 4] | statistically significant (P < 0.01) reductions in fungal burden at all doses | below the limit of detection for at least one of the doses |  |  |  |  |  |  |  |  |  |  |  |  | 

— paper PMC5278707, “Structure-Activity Relationships of a Series of Echinocandins and the Discovery of CD101, a Highly Stable and Soluble Echinocandin with Distinctive Pharmacokinetic Properties” (Antimicrobial Agents and Chemotherapy, 2017)
